Measurements taken from patent US20230096766A1, “AMINO ACID HAVING FUNCTIONAL GROUP CAPABLE OF INTERMOLECULAR HYDROGEN BONDING, PEPTIDE COMPOUND CONTAINING SAME AND METHOD FOR PRODUCTION THEREOF” (Chugai Seiyaku Kabushiki Kaisha, priority 2018, published 2023).
*1 amine or outer side, *2 acyl side, *3 side chain or, on linkers, in order; H or OH if unused. Where a SMILES comes first, the peptide text is derived from it. Bridges are numbered along the chain shown (N, C = ends). [ ]: non-standard residue; d: D form. The star is where a group is joined. NMehPhe = CN[C@@H](CCc1ccccc1)C(=O)O; X7 = O=C(C[C@H](COCCO)N[*:1])[*:2]; NMeF = CN[C@@H](Cc1ccccc1)C(=O)O; CH2CONHtBu = CC(C)(C)NC(=O)C*; NMeL = CN[C@@H](CC(C)C)C(=O)O; NMeA = CN[C@@H](C)C(=O)O; Piperidide = C1CCN(*)CC1; NBuGly = CCCCNCC(=O)O; NPrGly = CCCNCC(=O)O; Sar = CNCC(=O)O

Experiment: in vitro
Conditions: human, Caco-2, Caco-2 (cm/sec)

| Compound | Papp [×10⁻⁶ cm/s] |
| --- | --- |
| CCCN1CC(=O)N(C)[C@@H](C)C(=O)N[C@H](C(=O)N2CCCCC2)CC(=O)N(C)[C@@H](CC(C)C)C(=O)N[C@@H](Cc2ccccc2)C(=O)N(C)[C@@H](CC(C)C)C(=O)N(C)[C@@H](CC(C)C)C(=O)N[C@@H](COCC(=O)NC(C)(C)C)C(=O)N(C)[C@@H](CCc2ccccc2)C(=O)N(C)[C@@H](CC(C)C)C(=O)N[C@@H]([C@@H](C)O)C1=O [AP15] ([NMeL]F[NMeL][NMeL]S(CH2CONHtBu)[NMehPhe][NMeL]T[NPrGly][NMeA]D-Piperidide; lactam N-11) | 0.86 |
| CC(C)C[C@@H]1NC(=O)[C@H](CC(C)C)N(C)C(=O)[C@H](CCc2ccccc2)N(C)C(=O)[C@H](COCC(=O)NC(C)(C)C)NC(=O)[C@H](CC(C)C)N(C)C(=O)C[C@@H](C(=O)N2CCCCC2)NC(=O)[C@H](C)N(C)C(=O)CN(C)C(=O)[C@H]([C@@H](C)O)NC(=O)[C@H](CCc2ccccc2)N(C)C(=O)[C@H](CC(C)C)N(C)C1=O [AP16] ([NMeL]S(CH2CONHtBu)[NMehPhe][NMeL]L[NMeL][NMehPhe]T[Sar][NMeA]D-Piperidide; lactam N-11) | 0.27 |
| CCCCN1CC(=O)N(C)[C@@H](Cc2ccccc2)C(=O)N[C@@H](COCC(=O)NC(C)(C)C)C(=O)N(C)[C@@H](CC(C)C)C(=O)N[C@@H]([C@@H](C)O)C(=O)N(CCC)CC(=O)N(C)[C@@H](Cc2ccccc2)C(=O)N(C)[C@@H](CC(C)C)C(=O)N[C@@H](CC(C)C)C(=O)N(C)[C@@H](C)C(=O)N[C@H](C(=O)N2CCCCC2)CC1=O [AP17] ([NBuGly][NMeF]S(CH2CONHtBu)[NMeL]T[NPrGly][NMeF][NMeL]L[NMeA]D-Piperidide; lactam N-11) | 0.72 |
| CCCCN1CC(=O)N(C)[C@@H](Cc2ccccc2)C(=O)N[C@@H]([C@@H](C)CC)C(=O)N(C)[C@@H](CC(C)C)C(=O)N[C@@H]([C@@H](C)O)C(=O)N(CCC)CC(=O)N(C)[C@@H](Cc2ccccc2)C(=O)N(C)[C@@H](CC(C)C)C(=O)N[C@@H](COCC(=O)NC(C)(C)C)C(=O)N(C)[C@@H](C)C(=O)N[C@H](C(=O)N2CCCCC2)CC1=O [AP18] ([NBuGly][NMeF]I[NMeL]T[NPrGly][NMeF][NMeL]S(CH2CONHtBu)[NMeA]D-Piperidide; lactam N-11) | 1 |
| CCCCN1CC(=O)N(C)[C@@H](CC(C)C)C(=O)N[C@@H]([C@@H](C)CC)C(=O)N(C)[C@@H](Cc2ccccc2)C(=O)N[C@@H]([C@@H](C)O)C(=O)N(CCCC)CC(=O)N(C)[C@@H](CC(C)C)C(=O)N(C)[C@@H](Cc2ccccc2)C(=O)N[C@@H](COCC(=O)NC(C)(C)C)C(=O)N(C)[C@@H](C)C(=O)N[C@H](C(=O)N2CCCCC2)CC1=O [AP19] ([NBuGly][NMeL]I[NMeF]T[NBuGly][NMeL][NMeF]S(CH2CONHtBu)[NMeA]D-Piperidide; lactam N-11) | 0.88 |
| CCCN1CC(=O)N(C)[C@@H](CC(C)C)C(=O)N[C@@H](CC(C)C)C(=O)N(C)[C@@H](Cc2ccccc2)C(=O)N(C)[C@@H](CC(C)C)C(=O)N[C@H](C(=O)N2CCCCC2)CC(=O)N[C@H](CC(C)C)C(=O)N(C)[C@@H](Cc2ccccc2)C(=O)N[C@@H](COCCO)CC(=O)N(C)[C@@H](CC(C)C)C(=O)N[C@@H]([C@@H](C)O)C1=O [AP20] ([dL][NMeF][X7][NMeL]T[NPrGly][NMeL]L[NMeF][NMeL]D-Piperidide; lactam N-11) | 0.37 |
| CCCCN1CC(=O)N(C)[C@@H](CC(C)C)C(=O)N[C@@H](COCCO)CC(=O)N(C)[C@@H](Cc2ccccc2)C(=O)N(C)[C@@H](CC(C)C)C(=O)N[C@H](C(=O)N2CCCCC2)CC(=O)N[C@H](CC(C)C)C(=O)N(C)[C@@H](CC(C)C)C(=O)N[C@@H](Cc2ccccc2)C(=O)N(C)[C@@H](CC(C)C)C(=O)N[C@@H]([C@@H](C)O)C1=O [AP21] ([dL][NMeL]F[NMeL]T[NBuGly][NMeL][X7][NMeF][NMeL]D-Piperidide; lactam N-11) | 0.21 |
